For five compounds, EC50 and Ki results are on record in patent US11136312B2, “3,4,5-trisubstituted-1,2,4-triazoles and 3,4,5-trisubstituted-3-thio-1,2,4-triazoles and uses thereof” (Board of Trustees of Southern Illinois University, priority 2017, dated 2021).

Assay [1] addresses CHO-K1 cells expressing human somatostatin SSTR4 (Homo sapiens (Human), UniProt P31391). Kind of assay: Inhibition of forskolin stimulated cAMP, TR-FRET LANCE assay. In kind it is cell-based. To be noted: against 5 μM forskolin. The method, then: Measurement of forskolin stimulated inhibition of cAMP was performed via time-resolved fluorescence resonance energy transfer (TR-FRET) LANCE assay (AD0262, PerkinElmer Life Science, Inc., Boston Mass.). […] LANCE cAMP assay was performed per manufacture instruction with assessment of respective compound, somatostatin-28 (Sigma-Aldrich Co., St. Louis, Mo.) as control agonist, against 5 μM forskolin, performed in triplicate across concentration curve. […] Data was calculated via GraphPad PRISM-5 software.

Assay [2] deals with human somatostatin receptor SSTR3 (Homo sapiens (Human), UniProt P32745). Kind of assay: Competitive radioligand binding, 125I-Tyr-SRIF 14, membrane preparations. The following applies: competitive binding vs 125I-Tyr-SRIF 14, human SSTR3 membranes; read-out: SST3. The method, then:
(§1) Competitive radioligand binding experiments were performed using MEMBRANE TARGET Systems (Perkin-Elmer, Boston, Mass.) for human somatostatin receptors: SSTR1 (ES-520-M400UA), SSTR2A (ES-521-M400UA), SSTR3 (ES523-M400UA), SSTR4 (ES-524-M400UA) and SSTR5 (ES-522-M400UA) receptors. (See Table 1). Respective membrane receptor preparations were prepared in assay buffer (25 mM HEPES, 10 mM MgCl2, 1 mM CaCl2, 0.5% BSA, pH=7.4) at a 1:150 dilution. Binding assays were performed using 1251-Tyr-SRIF 14 (Perkin-Elmer, NEX 3890) dissolved in 1 mM HCl. Binding assays were performed in triplicate for each concentration of ligand in a total volume of 200 μL radioligand (25 μL ligand, 25 μL radioligand, 150 μL receptors) and incubated at room temperature for 90 minutes using a shaking table. Binding was terminated by filtration through GF/B glass fiber filters that were presoaked in 0.5% polyethyleneimine for a minimum of 4 hours. Filters were washed 9× with 1000 μL ice cold wash buffer (50 mM Tris-HCl, pH=7.4, 0.2% BSA). Filters were scored, transferred into plastic test tubes and counted in a gamma counter (Wizard2, Perkin-Elmer). Determination of the Ki for each compound was performed using non-linear regression with GraphPad PRISM-5 software (GraphPad Software, Inc., La Jolla, Calif.).

Assay [3] addresses human somatostatin receptor SSTR2A (Homo sapiens (Human), UniProt P30874). The description is as above. The following applies: competitive binding vs 125I-Tyr-SRIF 14, human SSTR2A membranes; read-out: SST2. The method, then: as §1, with “Respective” for “Competitive radioligand binding experiments were performed using MEMBRANE TARGET Systems (Perkin-Elmer, Boston, Mass.) for human somatostatin receptors: SSTR1 (ES-520-M400UA), SSTR2A (ES-521-M400UA), SSTR3 (ES523-M400UA), SSTR4 (ES-524-M400UA) and SSTR5 (ES-522-M400UA) receptors. (See Table 1). Respective”, “Binding assays were performed using 1251-Tyr-SRIF 14 (Perkin-Elmer, NEX 3890) dissolved in 1 mM HCl.” left out

The target of assay [4] is human somatostatin receptor SSTR5 (Homo sapiens (Human), UniProt P35346). Described as above. To be noted: competitive binding vs 125I-Tyr-SRIF 14, human SSTR5 membranes; read-out: SST5. The method, then: as §1, with “Respective” for “Competitive radioligand binding experiments were performed using MEMBRANE TARGET Systems (Perkin-Elmer, Boston, Mass.) for human somatostatin receptors: SSTR1 (ES-520-M400UA), SSTR2A (ES-521-M400UA), SSTR3 (ES523-M400UA), SSTR4 (ES-524-M400UA) and SSTR5 (ES-522-M400UA) receptors. (See Table 1). Respective”, “Binding assays were performed using 1251-Tyr-SRIF 14 (Perkin-Elmer, NEX 3890) dissolved in 1 mM HCl.” left out

Assay [5] addresses human somatostatin receptor SSTR1 (Homo sapiens (Human), UniProt P30872). The description is as above. To be noted: competitive binding vs 125I-Tyr-SRIF 14, human SSTR1 membranes; read-out: SST1. The method, then:
as §1, with “Respective” for “Competitive radioligand binding experiments were performed using MEMBRANE TARGET Systems (Perkin-Elmer, Boston, Mass.) for human somatostatin receptors: SSTR1 (ES-520-M400UA), SSTR2A (ES-521-M400UA), SSTR3 (ES523-M400UA), SSTR4 (ES-524-M400UA) and SSTR5 (ES-522-M400UA) receptors. (See Table 1). Respective”, “Binding assays were performed using 1251-Tyr-SRIF 14 (Perkin-Elmer, NEX 3890) dissolved in 1 mM HCl.” left out

Each structure is given as a SMILES string.

human somatostatin receptor SSTR2A, sequence (P30874 whole entry): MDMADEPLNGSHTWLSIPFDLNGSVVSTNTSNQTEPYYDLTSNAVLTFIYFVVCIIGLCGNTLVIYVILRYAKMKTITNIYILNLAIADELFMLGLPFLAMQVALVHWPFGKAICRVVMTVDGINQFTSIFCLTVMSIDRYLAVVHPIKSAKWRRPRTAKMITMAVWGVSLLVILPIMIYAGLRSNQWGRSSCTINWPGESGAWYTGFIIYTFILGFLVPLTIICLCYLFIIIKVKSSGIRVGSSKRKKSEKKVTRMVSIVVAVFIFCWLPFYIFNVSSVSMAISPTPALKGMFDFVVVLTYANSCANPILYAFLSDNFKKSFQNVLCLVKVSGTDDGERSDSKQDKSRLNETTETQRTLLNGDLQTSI
CHO-K1 cells expressing human somatostatin SSTR4, sequence (P31391 whole entry): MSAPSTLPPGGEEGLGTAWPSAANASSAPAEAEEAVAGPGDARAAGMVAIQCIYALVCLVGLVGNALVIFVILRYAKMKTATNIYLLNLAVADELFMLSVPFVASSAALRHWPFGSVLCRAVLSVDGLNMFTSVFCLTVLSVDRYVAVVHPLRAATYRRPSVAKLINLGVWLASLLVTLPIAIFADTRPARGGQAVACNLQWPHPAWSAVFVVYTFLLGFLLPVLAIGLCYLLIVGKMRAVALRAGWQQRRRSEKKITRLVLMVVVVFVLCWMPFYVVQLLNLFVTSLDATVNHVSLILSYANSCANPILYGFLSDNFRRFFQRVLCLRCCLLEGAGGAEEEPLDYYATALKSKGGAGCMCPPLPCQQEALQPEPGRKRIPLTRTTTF

Usually EC50 stands for the concentration giving half of the maximal effect. Higher therefore signals lower potency in that assay. `c1ccc(Cc2nnc(Cc3c[nH]c4ccccc34)n2CCCc2c[nH]cn2)cc1` [SK-I-25, 3-((4-(3-(1H-imidazol-4-yl)propyl)-5-benzyl-4H-1,2,4-triazol-3-yl)methyl)-1H-indole] registered a concentration giving a half-maximal response (EC50) in assay [1] of 0.00203 µM. The Ki in assay [2] was 0.0017 µM; in assay [3], > 10 µM.

Consider `Clc1ccccc1Cc1nnc(CCc2c[nH]c3ccccc23)n1CCCc1c[nH]cn1` [MM-I-17, 3-(2-(4-(3-(1H-Imidazol-4-yl)propyl)-5-(2-chlorobenzyl)-4H-1,2,4-triazol-3-yl)ethyl)-1H-indole], for which the Ki in assay [2], in assay [4], in assay [3] and in assay [5] was > 10 µM in each case.

For the compound `FC(F)(F)c1cccc(Cc2nnc(CCc3c[nH]c4ccccc34)n2CCCc2c[nH]cn2)c1` [BN-VI-97, 3-(2-(4-(3-(1H-Imidazol-4-yl)propyl)-5-(3-(trifluoromethyl)benzyl)-4H-1,2,4-triazol-3-yl)ethyl)-1H-indole], the Ki is > 10 µM in assay [2], > 10 µM in assay [4], > 10 µM in assay [3] and 5.31 µM in assay [5].

As for `COc1ccc2[nH]cc(Cc3nnc(Cc4ccccc4)n3CCCc3c[nH]cn3)c2c1` [SK-I-53, 3-((4-(3-(1H-imidazol-4-yl)propyl)-5-benzyl-4H-1,2,4-triazol-3-yl)methyl)-5-methoxy-1H-indole], the Ki is > 10 µM in assay [2], > 10 µM in assay [4], 7.1 µM in assay [3] and 1.72 µM in assay [5].

On to `COc1ccc(Cc2nnc(Cc3c[nH]c4ccc(OC)cc34)n2CCCc2c[nH]cn2)cc1` [SK-I-56, 3-((4-(3-(1H-imidazol-4-yl)propyl)-5-(4-methoxybenzyl)-4H-1,2,4-triazol-3-yl)methyl)-5-methoxy-1H-indole], for which the Ki was > 10 µM in assay [2], > 10 µM in assay [4], > 10 µM in assay [3] and 1.01 µM in assay [5].
